Experimental data from US20100105694A1, “SUBSTITUTED PYRAZINONE DERIVATIVES FOR USE AS A MEDICINE” (priority 2006, published 2010).
Read-outs that look alike come from different tables or passages of the source.

Legend:
[1] = biological target: T1, human adrenergic-α2C receptor (Homo sapiens, UniProt P18825); assay: Radioligand binding experiment for α2C-adrenoceptor ([3H]raulwolscine, CHO cell membranes)
T1 construct: expressed in transfected cells; host or cells: CHO cells, stably transfected; membranes
T1 sequence (P18825 1-462): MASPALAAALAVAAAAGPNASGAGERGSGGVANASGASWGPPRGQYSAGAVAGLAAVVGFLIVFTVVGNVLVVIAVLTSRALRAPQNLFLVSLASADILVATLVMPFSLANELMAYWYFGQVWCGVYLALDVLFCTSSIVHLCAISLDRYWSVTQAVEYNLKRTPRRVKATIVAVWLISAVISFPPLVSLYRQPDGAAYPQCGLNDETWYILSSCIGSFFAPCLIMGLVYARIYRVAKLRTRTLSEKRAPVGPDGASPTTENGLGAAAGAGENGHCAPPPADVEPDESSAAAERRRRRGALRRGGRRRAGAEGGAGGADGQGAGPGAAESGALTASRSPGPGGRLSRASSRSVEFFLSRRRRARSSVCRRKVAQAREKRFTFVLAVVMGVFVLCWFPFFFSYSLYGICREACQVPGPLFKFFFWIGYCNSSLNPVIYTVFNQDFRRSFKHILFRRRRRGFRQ
Experimental: (§1) The interaction of a compound of Formula (I) with α2C-adrenoceptor receptors was assessed in in vitro radioligand binding experiments. In general, a low concentration of a radioligand with a high binding affinity for a particular receptor or transporter is incubated with a sample of a tissue preparation enriched in a particular receptor or transporter or with a preparation of cells expressing cloned human receptors in a buffered medium. During the incubation, the radioligand binds to the receptor or transporter. When equilibrium of binding is reached, the receptor bound radioactivity is separated from the non-bound radioactivity, and the receptor- or transporter-bound activity is counted. The interaction of the test compounds with the receptor is assessed in competition binding experiments. Various concentrations of the test compound are added to the incubation mixture containing the receptor- or transporter preparation and the radioligand. The test compound in proportion to its binding affinity and its concentration inhibits binding of the radioligand. The radioligand used for hα2A and hα2C receptor binding was [^3H]-raulwolscine.
(§2) CHO cells, stabile transfected with human adrenergic-α2A and α2C receptor cDNA, were cultured in Dulbecco's Modified Eagle's Medium (DMEM)/Nutrient mixture Ham's F12 (ratio 1:1) (Gibco, Gent-Belgium) supplemented with 10% heat inactivated fetal calf serum (Life Technologies, Merelbeke-Belgium) and antibiotics (100 IU/ml penicillin G, 100 μg/ml streptomycin sulphate, 110 μg/ml pyruvic acid and 100 μg/ml L-glutamine). One day before collection, cells were induced with 5 mM sodiumbutyrate. Upon 80-90% of confluence, cells were scraped in phosphate buffered saline without Ca^2+ and Mg^2+ and collected by centrifugation at 1500×g for 10 minutes. The cells were homogenised in Tris-HCl 50 mM using an Ultraturrax homogenizer and centrifuged for 10 minutes at 23,500×g. The pellet was washed once by resuspension and rehomogenization and the final pellet was resuspended in Tris-HCl, divided in 1 ml aliquots and stored at −70° C.
(§3) Membranes were thawed and re-homogenized in incubation buffer (glycylglycine 25 mM, pH 8.0). […] Filters were rinsed extensively with ice-cold rinsing buffer (Tris-HCl 50 mM pH 7.4). Filter-bound radioactivity was determined by scintillation counting in a Topcount (Packard, Meriden, Conn.) and results were expressed as counts per minute (cpm). Non-specific binding was determined in the presence of 1 μM oxymetazoline for the hα2A receptor and 1 μM spiroxatrine for hα2C receptors.
(§4) Data from assays in the presence of compound were calculated as a percentage of total binding measured in the absence of test compound. Inhibition curves, plotting percent of total binding versus the log value of the concentration of the test compound, were automatically generated, and sigmoidal inhibition curves were fitted using non-linear regression. The pIC50 values of test compounds were derived from individual curves.

5HT-Transporter = biological target: T2, 5HT-Transporter (Homo sapiens, UniProt P31645); assay: Binding experiment for the 5HT-transporter ([3H]paroxetine, human platelet membranes)
T2 construct: Human platelet membranes (Oceanix Biosciences Corporation, Hanover, Md., USA) were thawed; tissue Oceanix Biosciences Corporation; host or cells: human platelet membranes
Experimental: as §1
Human platelet membranes (Oceanix Biosciences Corporation, Hanover, Md., USA) were thawed, diluted in buffer (Tris-HCl 50 mM, 120 mM NaCl and 5 mM KCl) and quickly (max 3 s) homogenised with an Ultraturrax homogenizer. […] Incubation was stopped by rapid filtration of the incubation mixture over GF/B filters, pre-wetted with 0.1% polyethyleneamine, using a Filtermate196 harvester (Packard, Meriden, Conn.). Filters were rinsed extensively with ice-cold buffer and radioactivity on the filters was counted in a Topcount liquid scintillation counter (Packard, Meriden, Conn.). Data were expressed as cpm. Imipramine (at 1 μM final concentration) was used to determine the non-specific binding.
as §4

[2] = biological target: T3, human adrenergic-α2A receptor (Homo sapiens, UniProt P08913); assay: Radioligand binding experiment for hα2A receptor ([3H]raulwolscine, CHO cell membranes)
T3 construct: expressed in transfected cells; host or cells: CHO cells, stably transfected; membranes
T3 sequence (P08913 1-465): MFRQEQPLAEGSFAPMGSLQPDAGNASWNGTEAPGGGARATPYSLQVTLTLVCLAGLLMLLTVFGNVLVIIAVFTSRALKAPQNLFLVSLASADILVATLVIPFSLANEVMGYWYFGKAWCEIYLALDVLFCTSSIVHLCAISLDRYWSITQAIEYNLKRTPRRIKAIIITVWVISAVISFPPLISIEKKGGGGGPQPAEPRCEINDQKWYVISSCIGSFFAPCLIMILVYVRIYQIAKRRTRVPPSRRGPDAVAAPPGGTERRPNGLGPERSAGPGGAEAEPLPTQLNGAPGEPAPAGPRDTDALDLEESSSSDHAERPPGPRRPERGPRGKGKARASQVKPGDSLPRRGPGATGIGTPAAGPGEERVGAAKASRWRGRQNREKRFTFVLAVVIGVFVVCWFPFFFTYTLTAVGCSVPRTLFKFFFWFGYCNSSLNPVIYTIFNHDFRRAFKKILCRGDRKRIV
Experimental: as §1, §2, §3, §4

[3] = [3H]raulwolscine 1 nM, membranes of CHO cells transfected with human α2C receptor, read-out: h-α2C pIC50 (converted)
[4] = [3H]paroxetine 0.5 nM, read-out: h-5HTT pIC50 (converted)
[5] = [3H]raulwolscine 1 nM, membranes of CHO cells transfected with human α2A receptor, read-out: h-α2A pIC50 (converted)

T2 sequence (P31645 whole entry): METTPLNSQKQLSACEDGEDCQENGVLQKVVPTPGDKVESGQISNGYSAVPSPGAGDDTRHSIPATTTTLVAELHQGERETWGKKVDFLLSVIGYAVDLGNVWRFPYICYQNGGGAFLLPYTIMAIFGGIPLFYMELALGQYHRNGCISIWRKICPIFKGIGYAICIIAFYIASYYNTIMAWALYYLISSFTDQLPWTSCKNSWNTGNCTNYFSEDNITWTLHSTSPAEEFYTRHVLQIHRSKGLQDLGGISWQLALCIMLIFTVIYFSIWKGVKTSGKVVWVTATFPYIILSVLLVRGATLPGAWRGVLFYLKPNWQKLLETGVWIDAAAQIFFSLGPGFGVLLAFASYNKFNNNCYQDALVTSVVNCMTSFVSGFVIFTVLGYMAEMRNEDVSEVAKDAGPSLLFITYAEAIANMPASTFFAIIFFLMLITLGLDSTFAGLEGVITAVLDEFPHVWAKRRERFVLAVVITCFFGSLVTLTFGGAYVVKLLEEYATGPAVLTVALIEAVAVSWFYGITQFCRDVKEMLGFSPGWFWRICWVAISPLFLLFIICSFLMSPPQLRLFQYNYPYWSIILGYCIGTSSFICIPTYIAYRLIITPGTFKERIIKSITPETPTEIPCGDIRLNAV

SMILES | IC50 [1, 3] [µM] | IC50 (5HT-Transporter; [4]) [µM] | IC50 [2, 5] [µM] | IC50 [1] [µM] | IC50 (5HT-Transporter; h-5HTT pIC50, [3H]paroxetine 0.5 nM) [µM] | IC50 [2] [µM]
CC(C)(C)OC(=O)NCCCn1ccnc(NC2CCN(CC(c3ccccc3)c3ccccc3)CC2)c1=O [Compound 9-3] | 0.316 | > 10 | 3.98 | – | – | –
NCc1ccc(Cn2ccnc(NC3CCN(Cc4ccc(-c5ccccc5)cc4)CC3)c2=O)cc1 [Compound 1-1] | 0.251 | 0.501 | 0.251 | – | – | –
O=C(Cn1ccnc(NC2CCN(CCCc3ccccc3)CC2)c1=O)c1ccccc1 [Compound 7-14] | 0.398 | 3.98 | 0.501 | – | – | –
O=C(Cn1ccnc(NC2CCN(CC(c3ccccc3)c3ccccc3)CC2)c1=O)c1ccccc1 [Compound 9-10] | 0.631 | > 10 | 2.51 | – | – | –
O=c1c(NC2CCN(CCc3ccccc3)CC2)nccn1Cc1ccccc1Br [Compound 6-7] | 0.398 | 5.01 | 0.794 | – | – | –
O=C1c2ccccc2C(=O)N1CCCn1ccnc(NC2CCN(CCCc3ccccc3)CC2)c1=O [Compound 7-5] | – | – | – | 0.02 | 1 | 0.501
CC(C)(C)OC(=O)NCCCn1ccnc(NC2CCN(CCc3ccccc3)CC2)c1=O [Compound 6-4] | 0.631 | > 10 | 3.16 | – | – | –
O=c1c(NC2CCN(CCCc3ccccc3)CC2)nccn1CCN1CCCCC1 [Compound 7-4] | 0.126 | > 10 | 1.58 | – | – | –
O=c1c(N2CCN(Cc3cccc(-c4ccccc4)c3)CC2)nccn1CC=Cc1ccccc1 [Compound 3-6] | 0.794 | 5.01 | 0.794 | – | – | –
NCc1ccc(Cn2ccnc(NC3CCN(Cc4ccc(OCc5ccccc5)cc4)CC3)c2=O)cc1 [Compound 11-1] | 0.631 | 2 | 0.251 | – | – | –
O=c1c(NC2CCN(CCCc3ccccc3)CC2)nccn1Cc1ccccc1Br [Compound 7-11] | 0.398 | 2 | 1.58 | – | – | –
O=C1c2ccccc2C(=O)N1CCCn1ccnc(NC2CCN(Cc3ccc(OCc4ccccc4)cc3)CC2)c1=O [Compound 11-5] | 0.251 | 3.16 | 0.794 | – | – | –
O=C1c2ccccc2C(=O)N1CCCn1ccnc(N2CCN(Cc3ccc(-c4ccccc4)cc3)CC2)c1=O [Compound 2-2] | 0.316 | 0.2 | 1 | – | – | –
